From ChEMBL document CHEMBL5247647, “Phenothiazine-Based LSD1 Inhibitor Promotes T-Cell Killing Response of Gastric Cancer Cells” (J Med Chem, 2023)

Target: Lysine-specific histone demethylase 1A (Homo sapiens, UniProt O60341)
Experiment: Inhibition of recombinant LSD1 (unknown origin) expressed in Escherichia coli BL21 (DE3) using H3K4me2 peptide as substrate incubated for 30 mins by fluorescence based microplate reader assay

How did the IC50 turn out when `CN(C)CCCN1c2ccccc2Sc2ccc(C(F)(F)F)cc21` [TRIFLUPROMAZINE] was run?
Its IC50 is > 10 µM.
